Source: article PMC12188297 (2025)

Each compound was assayed on flexible GA-rich RNA, 5'-U(GAAG)2GU (RNA, single strand) UGAAGGAAGGU (assay: fluorescence polarization). Conditions: Na+ 50 mM; 25 mM MES pH 6.1, 0.002% Triton X, 25 °C; ligand fluorescence.

Kd [µM] | SMILES
16.4 ± 1.1 | Cc1cn2cc(-c3cc4ccc(N5CCN[C@@H](C)C5)cc4n4cnnc34)cc(F)c2n1
32.0 ± 2.1 | Cc1cn2cc(-c3cc4ccc(N5CC6(CNC6)C5)cc4oc3=O)cc(F)c2n1
19.3 ± 2.3 | CNC1CCN(c2ccc3cc(-c4cc(F)c5nc(C)cn5c4)c(=O)oc3c2)C1 (centres unmarked)
11.1 ± 2.8 | Cc1cn2cc(-c3cc4ccc(N5CCN[C@@H](C)C5)c(C)c4oc3=O)cc(F)c2n1
33.3 ± 1.3 | Cc1cn2cc(-c3cc4ccc(N5CCN[C@@H](C)C5)cc4[nH]c3=O)cc(F)c2n1
16.7 ± 0.5 | CNC1CCN(c2ccc3cc(-c4cc(F)c5nc(C)cn5c4)c(=O)oc3c2)CC1
11.6 ± 0.01 | C[C@H]1CN(c2ccc3cc(-c4cc(F)c5c(cnn5C)c4)c(=O)oc3c2)CCN1
19.3 ± 0.9 | Cc1cn2cc(-c3cc4c(C)cc(N5CCN[C@@H](C)C5)cc4oc3=O)cc(F)c2n1
40.1 ± 5.2 | Cc1cn2cc(-c3cc4ccc(N5CCN[C@@H](C)C5)cc4n(CCO)c3=O)cc(F)c2n1
39.9 ± 11.5 | Cc1nccn2cc(-c3cc4ccc(N5CCN[C@@H](C)C5)cc4oc3=O)nc12
10.88 ± 0.3 | Cc1cn2cc(-c3cc4ccc(N5CCN(C)CC5)cc4oc3=O)cc(F)c2n1
12.6 ± 0.4 | C[C@H]1CN(c2ccc3cc(-c4cc(F)c5nn(C)cc5c4)c(=O)oc3c2)CCN1
13.5 ± 2.0 | Cc1cn2cc(-c3cc4ccc(N5CC6CCCNC6C5)cc4oc3=O)cc(F)c2n1 (centres unmarked)
39.7 ± 11.5 | CCn1c(=O)c(-c2cc(F)c3nc(C)cn3c2)cc2ccc(N3CCN[C@@H](C)C3)cc21
11.9 ± 0.9 | Cc1cn2cc(-c3cc4ccc(N5CCN[C@@H](CO)C5)cc4oc3=O)cc(F)c2n1
18.2 ± 1.9 | Cc1cn2cc(-c3cc4ccc(N5CC6CNCC6C5)cc4oc3=O)cc(F)c2n1 (centres unmarked)
10.7 ± 0.9 | Cc1cn2cc(-c3cc4ccc(N5CC6CC(C5)N6)cc4oc3=O)cc(F)c2n1
14.3 ± 1.1 | Cc1cn2cc(-c3cc4ccc(N5CCN[C@@H](C)C5)cc4oc3=O)cc(F)c2n1

The next lines start with the compound.

SMILES | Kd [µM]
Cc1cn2cc(-c3cc4ccc(N5CCN(CC6CCOCC6)[C@@H](C)C5)cc4oc3=O)cc(F)c2n1 | 12.0 ± 0.4
Cc1cn2cc(-c3cc4ccc(N5CCN[C@@H](C)C5)cc4n(CC4CC4)c3=O)cc(F)c2n1 | 42.6 ± 15.2
Cc1cn2cc(-c3cc4ccc(N5CCN(C)CC5)cc4oc3=O)nc2c(C)n1 | 40.4 ± 6.5
COc1cn2cc(-c3cc4ccc(N5CCNCC5)cc4oc3=O)nc2cn1 | 39.6 ± 0.4
O=c1oc2cc(N3CCNCC3)ccc2cc1-c1ccc2ncccc2c1 | 17.8 ± 3.9
O=c1oc2cc(N3CCNCC3)ccc2cc1-c1ccc2ccccc2c1 | 34.1 ± 0.6
CN1CCN(c2ccc3cc(-c4ccc(Cl)cc4)c(=O)oc3c2)CC1 | 37.2 ± 1.0
CN1CCN(c2cc(F)c3cc(-c4ccc(Cl)cc4)c(=O)oc3c2)CC1 | 42.8 ± 2.7
Cc1cn2cc(-c3cc4ccc(NC5CNC5)cc4oc3=O)cc(F)c2n1 | 15.6 ± 0.7

What follows are compounds tested on flexible GA-rich RNA, 5'-U(GAAG)2GU (RNA, single strand) UGAAGGAAGGU (assay: fluorescence polarization (intrinsic ligand fluorescence)). Conditions: Na+ 50 mM; 25 mM MES, 0.002% Triton X, pH 6.1, 25 °C, 0.1 μM ligand.

Kd [µM] | SMILES
2.7 ± 0.1 | Cc1cn2cc(-c3cc4ccc(N5CCN(CC6CC6)[C@@H](C)C5)cc4oc3=O)cc(F)c2n1
> 100 | Cc1nc2c(F)cc(-c3cc4ccc(N5CCN[C@@H](C)C5)cc4oc3=O)cc2o1
3.06 ± 0.3 | CCN1CCN(c2ccc3cc(-c4cc(F)c5nc(C)cn5c4)c(=O)oc3c2)C[C@@H]1C
71.0 ± 2.3 | Cc1cn2cc(-c3cc4ccc(N5CC6CCC(C5)N6)cc4oc3=O)cc(F)c2n1

Second part, the compound before the results:

SMILES | Kd [µM]
COc1ccn2cc(-c3cc4ccc(N5CCNCC5)cc4oc3=O)nc2c1 | 10.7 ± 0.1
Cc1cn2cc(-c3nc4ccc(N5CCN[C@@H](C)C5)cc4s3)c(F)cc2n1 | 38.9 ± 6.6
O=c1oc2cc(N3CCNCC3)ccc2cc1-c1cn2ccccc2n1 | 14.5 ± 1.3
COc1ccc2nc(-c3cc4ccc(N5CCNCC5)cc4oc3=O)cn2c1 | 29.7 ± 3.0
O=c1oc2cc(N3CCNCC3)ccc2cc1-c1cn2ccc(Cl)cc2n1 | 25.9 ± 6.0
Cc1cn2cc(-c3cc4ccc(N5CCN[C@@H](C)C5)cc4n(-c4ccccc4)c3=O)cc(F)c2n1 | 78.1 ± 9.7
O=c1oc2cc(N3CCNCC3)ccc2cc1-c1cn2ccc(C(F)(F)F)cc2n1 | 21.8 ± 0.2
Cc1cn2cc(-c3nc4sc(N5CCN(C)CC5)cc4s3)cc(F)c2n1 | 35.7 ± 0.01
CCN1CCN(c2ccc3cc(-c4cn5cc(C)nc(C)c5n4)c(=O)oc3c2)C[C@@H]1C | 14.1 ± 0.9
COc1c(N2CCN[C@@H](C)C2)ccc2cc(-c3cc(F)c4nc(C)cn4c3)c(=O)n(C)c12 | 22.1 ± 2.7
